The source of these data is patent US11780843B2, “Compounds active towards nuclear receptors” (NUEVOLUTION A/S, priority 2020, dated 2023).

pIC50: −log10 of the molar value. Where two headings read alike, the source gives them in different places.

Assay [1] concerns plasma IL-17A. The assay can be described thus: In vivo IL-17A induction in anti-CD3 model in mice. As to conditions: oral gavage twice daily day 0 to day 3, anti-CD3e induced C57BL/6JRj mice. As for the experimental part: Male C57BL/6JRj mice (7 week old) were purchased from Janvier Labs and housed at the animal facilities of Almirall throughout the study. Animals were allowed to condition for 5 days in their new environment at 22° C.±2° C., 55%±10% relative humidity and 12 h:12 h light:dark cycles. Animals were housed in polycarbonate cages, with free access to water and non-purified stock diet (2014 Teklad Global 14% Protein Rodent Maintenance Diet, Envigo) during the full course of the studies. Care of animals was undertaken in compliance with the European Committee Directive 2010/63/EU, and the Catalan and Spanish law. […]
Plasma levels of IL-17A were measured by ELISA (R&D Systems) according to the manufacturer's instruction. Results were calculated as the percentage of reduction of plasma IL-17A versus the difference between non-induced and anti-CD3e induced groups through the formula: inhibition=100*[1−[(x−mean non-induced)/(mean control vehicle−mean non-induced)]]. The IL-17A inhibition for each treatment can be expressed as the mean for each treatment group±S.E.M. Statistical analysis of data were conducted with one-way ANOVA followed by Dunnett's multiple comparisons test when appropriate. […]

Assay [2] has as its target T1, RORγ ligand-binding domain (Homo sapiens, UniProt P51449).
T1 construct: Gal4 (galactose-responsive transcription factor); expressed in transfected cells; host or cells: HEK293, transient co-transfection
T1 sequence (P51449 269-508 limits assumed): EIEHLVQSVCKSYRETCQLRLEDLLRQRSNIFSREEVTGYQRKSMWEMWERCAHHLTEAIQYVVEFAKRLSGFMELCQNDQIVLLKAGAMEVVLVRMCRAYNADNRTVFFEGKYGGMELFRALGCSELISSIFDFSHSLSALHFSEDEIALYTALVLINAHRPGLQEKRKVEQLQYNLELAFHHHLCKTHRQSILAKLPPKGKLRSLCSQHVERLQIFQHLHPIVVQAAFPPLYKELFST
Briefly: RORγ Reporter Assay (Gal4). The assay is classed as cell-based. In short, it runs like this: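 HEK293 cells transiently co-transfected with Gal4–RORγ LBD fusion and UAS-luciferase reporter, plated 2 h, then exposed to compound (0.1% DMSO final) for 24 h at 37 °C. Luminescence read; percent reduction vs vehicle fitted to dose-response curves.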
(A reporter such as luciferase makes a cellular process visible.)

In assay [3] the test system is IL-17A secretion in activated PBMCs. The assay can be described thus: IL-17A secretion in activated PBMCs. As to conditions: human PBMCs stimulated with CD3/CD28 Dynabeads for 48 h, absolute IC50. Type of assay: cell-based. The text has this:
Heparin-treated whole blood from healthy human volunteers was supplied from Hospital de Sant Pau (Barcelona) under the approval of the local ethical review board for human studies (Hospital de Sant Pau, Barcelona, Spain). Human peripheral blood mononuclear cells (PBMCs) were isolated from healthy human volunteers by density gradient centrifugation using the Ficoll-Paque (GE Healthcare). PBMCs were suspended in cell culture medium which consisted on RPMI 1640 medium (Sigma-Aldrich) containing 10% heat inactivated fetal bovine serum (Sigma-Aldrich), 2 mM L-Glutamine (Gibco), 20 mM Hepes (Gibco) and 100 U/mL penicillin (Sigma-Aldrich). Cells were seeded in 384-well plate (DiscoverX), at 40,000 cells per well and cultured 2 h at 37° C. and 5% CO2.
Dose-response curves with compounds were prepared using a 5-fold serial dilution (10 concentrations) in 100% DMSO and further diluted 100-fold in culture medium. Compound solutions (5 μL) were added to the plate containing cells (final DMSO concentration of 0.1%) and incubated for 30 min. Then, cells were stimulated with CD3/CD28 Dynabeads (ThermoFisher, at a bead-to-cell ratio of 1:1) for 48 h at 37° C. and 5% CO2.
IL-17A levels in supernatant were determined by immunoassay using hIL17A QBeads (Intellicyt) and by fluorescence analysis in iQue flow cytometer following the manufacturer's instructions. Inhibition of IL-17A secretion was calculated using the following formula: inhibition=100*[1−[(x−mean basal condition)/(mean top condition—mean basal condition)]]. Activated DMSO-treated cells were used as top condition and activated GNE09461 (10 μM)-treated cells as basal condition.

For assay [4], the system named is Th17 cells. Briefly: Th17 Assay (IL-17 levels in supernatants of differentiated Th17 cells). The assay is classed as cell-based. As to conditions: Homo sapiens, 168 h; naive CD4+ T cells differentiated to Th17 for seven days, IL-17 by ELISA. Here is the method:
Human peripheral blood mononuclear cells (PBMCs) were isolated from buffy coats of healthy human volunteers using the Ficoll paque PLUS kit (GE Healthcare, cat no 17-1440-02), as instructed by the manufacturer. Naive CD4+ T cells were isolated with Naive CD4+ T cell kit, human (Milteny Biotec, cat no 130-094-131). The following modifications were made to the manufacturer's protocol: 1) Incubation with Biotin-Antibody Cocktail and Anti-Biotin MicroBeads was prolonged to 30 minutes, and 2) Cells were washed with 40 mL of Miltenyi buffer. Differentiation of Th17 cells in anti-CD3 (BD Pharmingen, 5 μg/ml) coated 96-well plates (400,000 cells/well, 160 μl RPMI 1640+10% Fetal Bovine Serum) containing 5 μg/ml anti-CD28 (BD Pharmingen), 10 ng/ml IL-2 (R&D Systems), 2.5 ng/ml TGFβ-1 (R&D Systems), 20 ng/ml IL-10 (R&D Systems), 20 ng/ml IL-6 (R&D Systems), 30 ng/ml IL-23 (R&D Systems), 2.5 μg/ml anti-IL-4 (R&D Systems) and 1 μg/ml anti-IFNγ (R&D Systems) and with test compound during the entire differentiation (or vehicle, 0.1% DMSO for control). Test compounds were tested in triplicates, diluted 1000-fold in medium (final DMSO concentration is 0.1%). […] IL-17 levels in supernatants were measured with ELISA (R&D Systems).

[5] abbreviates: HEK293 cells, luciferase reporter, 24 h incubation, absolute IC50, read-out: IC50.

On to `NC(=O)CN1CC[C@](O)(Cn2ccc3c(N(Cc4ccc(C(F)(F)F)cc4)C4CC4)ncnc32)[C@@H](O)C1` (single isomer, unassigned) [Example L5-1-1-1], for which the “Inhibition of IL-17A (%) at 3 mg/kg” value in assay [1] was 94%. For the same compound, the negative logarithm of the IC50 (pIC50) (as a rule, the IC50 on a negative log10 scale, so that one unit is a factor of ten) in assay [2] (setting [5]) is 8.66; in assay [2] (stated as a bound only (Tables 5 a, 6, 7), read-out: Gal4 assay IC50) it was above 7.00; in assay [3] (Homo sapiens, PBMC, 48 h), 8.44.

Regarding `NC(=O)CN1CCC(Cn2ccc3c(N4CCOCC4c4ccc(C(F)(F)F)cc4)ncnc32)CC1` (single isomer, unassigned) [Example P6-02-2], the negative logarithm of the IC50 (pIC50) was 7.52 in assay [2] (setting [5]) and 6.91 in assay [4].

Regarding `NC(=O)CN1CC[C@@H](Cn2cc(F)c3c(N(Cc4ccc(C(F)(F)F)cc4)C4CC4)ncnc32)[C@H](O)C1` (single isomer, unassigned) [Example P6-14-2], the pIC50 in assay [2] (setting [5]) was 9.00; in assay [3], 8.77.

In the case of `NC(=O)CN1CC[C@@H](Cn2ccc3c(N(Cc4ccc(C(F)(F)F)cn4)C4CC4)ncnc32)[C@H](O)C1` (single isomer, unassigned) [Example P6-23-1], the pIC50 in assay [2] (setting [5]) is 8.00; in assay [3] (Homo sapiens, PBMC, 48 h), 7.23.

With `NC(=O)CN1CC[C@@H](Cn2ccc3c(N(Cc4ccc(C(F)(F)F)cn4)C4CC4)ncnc32)[C@H](O)C1` (single isomer, unassigned) [Example P6-23-2], the pIC50 in assay [2] (setting [5]) was 7.82; in assay [3], 7.01.

Regarding `CCN(Cc1ccc(C(F)(F)F)cc1)c1ncnc2c1ccn2C[C@@H]1CCN(CC(N)=O)C[C@H]1O` (single isomer, unassigned) [Example P6-24-1], the pIC50 was 8.31 in assay [2] (setting [5]) and 8.00 in assay [3].

For the compound `CCN(Cc1ccc(C(F)(F)F)cc1)c1ncnc2c1ccn2C[C@@H]1CCN(CC(N)=O)C[C@H]1O` (single isomer, unassigned) [Example P6-24-2], the pIC50 is 8.04 in assay [2] (setting [5]) and 6.77 in assay [3].

On to `CC(C)N(Cc1ccc(C(F)(F)F)cc1)c1ncnc2c1ccn2C[C@@H]1CCN(CC(N)=O)C[C@H]1O` (single isomer, unassigned) [Example P6-25-1], for which the pIC50 was 7.92 in assay [2] (setting [5]) and 6.96 in assay [3] (Homo sapiens, PBMC, 48 h).

As to `CC(C)N(Cc1ccc(C(F)(F)F)cc1)c1ncnc2c1ccn2C[C@@H]1CCN(CC(N)=O)C[C@H]1O` (single isomer, unassigned) [Example P6-25-2], the negative logarithm of the IC50 (pIC50) was 7.52 in assay [2] (setting [5]) and 6.89 in assay [3].

In the case of `NC(=O)CN1CC[C@@H](Cn2cnc3c(N(Cc4ccc(C(F)(F)F)cc4)C4CC4)ncnc32)[C@H](O)C1` (single isomer, unassigned) [Example P6-26-2], the pIC50 is 8.30 in assay [2] (setting [5]) and 7.19 in assay [3] (Homo sapiens, PBMC, 48 h).

Turning to `NC(=O)CN1CC[C@](O)(Cn2ccc3c(N(Cc4ccc(-n5cccn5)cc4)C4CC4)ncnc32)[C@@H](O)C1` (single isomer, unassigned) [Example R5-2-1], the pIC50 in assay [2] (setting [5]) is 8.31; in assay [3], 7.54.

Turning to `NC(=O)CN1CC[C@](O)(Cn2ccc3c(N(Cc4ccc(-n5cccn5)cc4)C4CC4)ncnc32)[C@@H](O)C1` (single isomer, unassigned) [Example R5-2-2], the negative logarithm of the IC50 (pIC50) in assay [2] (setting [5]) was 8.19; in assay [3], 8.13.

As to `NC(=O)CN1CCC(O)(Cn2cc(F)c3c(N(Cc4ccc(C(F)(F)F)cc4)C4CC4)ncnc32)CC1` [Example 3P6-1, 2-(4-((4-(Cyclopropyl(4-(trifluoromethyl)benzyl)amino)-5-fluoro-7H-pyrrolo[2,3-d]pyrimidin-7-yl)methyl)-4-hydroxypiperidin-1-yl)acetamide], the negative-log IC50 (pIC50) is 8.16 in assay [2] (setting [5]) and 7.68 in assay [3] (Homo sapiens, PBMC, 48 h).

As for `NC(=O)CN1CCC(O)(Cn2ccc3c(N(Cc4ccc(C(F)(F)F)cc4)C4CC4)ncnc32)CC1` [Example 3P6-2, 2-(4-((4-(cyclopropyl(4-(trifluoromethyl)benzyl)amino)-7H-pyrrolo-[2,3-d]pyrimidin-7-yl)methyl)-4-hydroxypiperidin-1-yl)acetamide], the negative logarithm of the IC50 (pIC50) in assay [2] (setting [5]) is 8.38; in assay [3] (Homo sapiens, PBMC, 48 h), 8.66.

Consider `NC(=O)CN1CCC(Cn2cc(F)c3c(N(Cc4ccc(C(F)(F)F)cc4)C4CC4)ncnc32)CC1` [Example P6-05, 2-(4-((4-(cyclopropyl(4-(trifluoromethyl)benzyl)amino)-5-fluoro-7H-pyrrolo[2,3-d]pyrimidin-7-yl)methyl)piperidin-1-yl)acetamide], for which the pIC50 in assay [2] (setting [5]) was 7.21; in assay [3] (Homo sapiens, PBMC, 48 h), 7.70.

As to `NC(=O)CN1CCC(Cn2cnc3c(N(Cc4ccc(C(F)(F)F)cc4)C4CC4)ncnc32)CC1` [Example P6-06, 2-(4-((6-(cyclopropyl(4-(trifluoromethyl)benzyl)amino)-9H-purin-9-yl)methyl)piperidin-1-yl)acetamide], the pIC50 is 7.07 in assay [2] (setting [5]) and 7.32 in assay [3] (Homo sapiens, PBMC, 48 h).

Consider `N#CC1(Cn2cc(F)c3c(N(Cc4ccc(C(F)(F)F)cc4)C4CC4)ncnc32)CCN(CC(N)=O)CC1` [Example P6-11, 2-(4-cyano-4-((4-(cyclopropyl(4-(trifluoromethyl)benzyl)amino)-5-fluoro-7H-pyrrolo[2,3-d]pyrimidin-7-yl)methyl)piperidin-1-yl)acetamide], for which the pIC50 in assay [2] (setting [5]) was 7.80; in assay [3] (Homo sapiens, PBMC, 48 h), 7.64.
